Test results: the supplement of paper PMC4862054
Several values for one entry are separate records, joined by “and”; a condition that tells them apart may be missing. Identical values can stand only once.

How the values were obtained:
DU-4475 [1] = assay: normalised viability (% of control), CellTiter-Blue; higher = more viable cells (about 100 = DMSO control); conditions: 1000 nM; incubation time: 72 h
Description: (§1)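 DSRT, CellTiter-Blue viability, 72 h incubation. Signal is normalised to DMSO and benzethonium chloride controls. Value is the normalised response at dose 7.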

HDQ-P1 [2] = assay: as above; conditions: 1000 nM; incubation time: 72 h
Description: as §1

MDA-MB-453 [3] = assay: as above; conditions: 1000 nM; incubation time: 72 h
Description: as §1

CAL-85-1 = assay: as above; conditions: 1000 nM; incubation time: 72 h
Description: as §1

CAL-148 [4] = assay: as above; conditions: 1000 nM; incubation time: 72 h
Description: as §1

CAL-51 [5] = assay: as above; conditions: 1000 nM; incubation time: 72 h
Description: as §1

HCC1143 [6] = assay: as above; conditions: 100 nM; incubation time: 72 h
Description: (§2)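 DSRT, CellTiter-Blue viability, 72 h incubation. Signal is normalised to DMSO and benzethonium chloride controls. Value is the normalised response at dose 3.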

MDA-MB-468 [7] = assay: as above; conditions: 100 nM; incubation time: 72 h
Description: as §2

HCC1599 [8] = assay: as above; conditions: 100 nM; incubation time: 72 h
Description: as §2

MDA-MB-231 [9] = assay: as above; conditions: 100 nM; incubation time: 72 h
Description: as §2

CAL-120 [10] = assay: as above; conditions: 100 nM; incubation time: 72 h
Description: as §2

MDA-MB-453 [11] = assay: as above; conditions: 10 nM; incubation time: 72 h
Description: as §2

HCC1937 [12] = assay: as above; conditions: 100 nM; incubation time: 72 h
Description: as §2

CAL-148 [13] = assay: as above; conditions: 10 nM; incubation time: 72 h
Description: as §2

HCC1143 [14] = assay: normalised viability (% of control), CellTiter-Blue; higher = more viable cells (100 = DMSO, 0 = benzethonium chloride kill control); conditions: 1 nM; incubation time: 72 h
Description: (§3)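 DSRT, CellTiter-Blue viability, 72 h incubation. Signal is normalised to DMSO and benzethonium chloride controls. Value is the normalised response at dose 1.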

BT-549 = assay: as above; conditions: 1 nM; incubation time: 72 h
Description: as §3

MDA-MB-468 [15] = assay: as above; conditions: 1 nM; incubation time: 72 h
Description: as §3

DU-4475 [16] = assay: as above; conditions: 1 nM; incubation time: 72 h
Description: as §3

HCC1599 [17] = assay: as above; conditions: 1 nM; incubation time: 72 h
Description: as §3

MDA-MB-231 [18] = assay: as above; conditions: 1 nM; incubation time: 72 h
Description: as §3

MDA-MB-436 = assay: as above; conditions: 1 nM; incubation time: 72 h
Description: as §3

MFM-223 = assay: as above; conditions: 1 nM; incubation time: 72 h
Description: as §3

CAL-120 [19] = assay: as above; conditions: 1 nM; incubation time: 72 h
Description: as §3

HDQ-P1 [20] = assay: as above; conditions: 1 nM; incubation time: 72 h
Description: as §3

MDA-MB-453 [21] = assay: as above; conditions: 1 nM; incubation time: 72 h
Description: as §3

Hs578T = assay: as above; conditions: 1 nM; incubation time: 72 h
Description: as §3

HCC1937 [22] = assay: as above; conditions: 1 nM; incubation time: 72 h
Description: as §3

SK-BR-3 = assay: as above; conditions: 1 nM; incubation time: 72 h
Description: as §3

CAL-148 [23] = assay: as above; conditions: 1 nM; incubation time: 72 h
Description: as §3

CAL-51 [24] = assay: as above; conditions: 1 nM; incubation time: 72 h
Description: as §3

Row | Compound | normalised viability (DU-4475 [1]) | normalised viability (HDQ-P1 [2]) | normalised viability (MDA-MB-453 [3]) | normalised viability (CAL-85-1) | normalised viability (CAL-148 [4]) | normalised viability (CAL-51 [5]) | normalised viability (HCC1143 [6]) | normalised viability (MDA-MB-468 [7]) | normalised viability (HCC1599 [8]) | normalised viability (MDA-MB-231 [9]) | normalised viability (CAL-120 [10]) | normalised viability (MDA-MB-453 [11]) | normalised viability (HCC1937 [12]) | normalised viability (CAL-148 [13]) | normalised viability (HCC1143 [14]) | normalised viability (BT-549) | normalised viability (MDA-MB-468 [15]) | normalised viability (DU-4475 [16]) | normalised viability (HCC1599 [17]) | normalised viability (MDA-MB-231 [18]) | normalised viability (MDA-MB-436) | normalised viability (MFM-223) | normalised viability (CAL-120 [19]) | normalised viability (HDQ-P1 [20]) | normalised viability (MDA-MB-453 [21]) | normalised viability (Hs578T) | normalised viability (HCC1937 [22]) | normalised viability (SK-BR-3) | normalised viability (CAL-148 [23]) | normalised viability (CAL-51 [24])
1 | Cc1ccc(-c2cc(C(F)(F)F)nn2-c2ccc(S(N)(=O)=O)cc2)cc1 [Celecoxib] | 110% | 83.2% | 103% | 69.9% | 75.5% | 93.5% | 95.9% | 111% | 90.2% | 89% | 91.1% | 103% | 94.9% | 97.2% | 90.7% | 90.7% | 102% | 89% | 79% | 117% | 104% | 98.5% | 78.3% | 114% | 97.3% | 111% | 96.7% | 75.2% | 95.4% | 91.3%
2 | Nc1ncn([C@H]2C[C@H](O)[C@@H](CO)O2)c(=O)n1 [Decitabine] | 76.6% and 89.9% | 87.1% and 88.9% | 96% and 103% | 78.2% and 89.6% | 75.2% and 75% | 107% and 98.7% | 82.4% and 79.1% | 32.4% and 32.1% | 108% and 99.9% | 86.7% and 95% | 85.2% and 84.4% | 90.9% and 113% | 101% and 108% | 87.3% and 90% | 88.1% and 95.7% | 110% and 109% | 96.6% and 98.9% | 102% and 101% | 107% and 109% | 111% and 91.6% | 94.8% and 84.5% | 82.4% and 104% | 84.8% and 82.6% | 114% and 108% | 93% and 107% | 90.4% and 111% | 95.8% and 102% | 82% and 93.2% | – | 113% and 104%
